# According to patent US12385058B2, “Herbicide tolerance protein, encoding gene thereof and use thereof” (Beijing Dabeinong Biotechnology Co., Ltd., priority 2018, dated 2025):
# Test system: maize plants
# Test: Herbicide tolerance of transgenic maize T1 plants (spraying, damage degree)
# Format: in vivo
# Settings: 144 g ai/ha (8x Tri.)
# Description: The degree of damage caused by the herbicide was measured for each plant according to the plant growth status 3 days after spraying (3 DAT), 7 days after spraying (7 DAT), 14 days after spraying (14 DAT) and 21 days after spraying (21 DAT): a growth status equivalent to that of the untreated plants is defined as having a damage degree of 0%; the case where leaves are locally chlorotic and yellow but the normal plant growth is substantially not affected is defined as having a damage degree of 50%; and the case where the whole plant is purple and dying is defined as having a damage degree of 100%. The maize plants into which the ALT02M1-02 nucleotide sequence was introduced were of three strains in total (S15, S16 and S17), the maize plants into which the ALT02M2-02 nucleotide sequence was introduced were of three strains in total (S18, S19 and S20), the maize plants into which the ALT02M3-02 nucleotide sequence was introduced were of three strains in total (S21, S22 and S23), the maize plants into which the ALT02-02 nucleotide sequence was introduced were of three strains in total (S24, S25 and S26), the control maize plants were of two strains in total (S27 and S28), and the wild-type maize plants were of one strain in total (CK2); and 10-15 plants were selected from each strain and tested.
# [1] = maize genotype CK2 (wild-type maize plants)
# [2] = maize genotype S15 (ALT02M1-02 introduced)
# [3] = maize genotype S16 (ALT02M1-02 introduced)
# [4] = maize genotype S17 (ALT02M1-02 introduced)
# [5] = maize genotype S18 (ALT02M2-02 introduced)
# [6] = maize genotype S19 (ALT02M2-02 introduced)
# [7] = maize genotype S20 (ALT02M2-02 introduced)
# [8] = maize genotype S21 (ALT02M3-02 introduced)
# [9] = maize genotype S22 (ALT02M3-02 introduced)
# [10] = maize genotype S23 (ALT02M3-02 introduced)
# [11] = maize genotype S24 (ALT02-02 introduced)
# [12] = maize genotype S25 (ALT02-02 introduced)
# [13] = maize genotype S26 (ALT02-02 introduced)
# [14] = maize genotype S27 (control maize plants, DBN100830N)
# [15] = maize genotype S28 (control maize plants, DBN100830N)
substance,measurement,setting,value
"methyl 2-[N-(4-methoxy-6-methyl-1,3,5-triazin-2-yl)-N-methylcarbamoylaminosulfonyl]benzoate [tribenuron-methyl]",Average damage % 3DAT,[1],46%
same,Average damage % 7DAT,[1],86%
same,Average damage % 14DAT,[1],100%
same,Average damage % 21DAT,[1],100%
same,Average damage % 3DAT,[2],5%
same,Average damage % 7DAT,[2],0%
same,Average damage % 14DAT,[2],0%
same,Average damage % 21DAT,[2],0%
same,Average damage % 3DAT,[3],6%
same,Average damage % 7DAT,[3],0%
same,Average damage % 14DAT,[3],0%
same,Average damage % 21DAT,[3],0%
same,Average damage % 3DAT,[4],3%
same,Average damage % 7DAT,[4],0%
same,Average damage % 14DAT,[4],0%
same,Average damage % 21DAT,[4],0%
same,Average damage % 3DAT,[5],0%
same,Average damage % 7DAT,[5],0%
same,Average damage % 14DAT,[5],0%
same,Average damage % 21DAT,[5],0%
same,Average damage % 3DAT,[6],0%
same,Average damage % 7DAT,[6],0%
same,Average damage % 14DAT,[6],0%
same,Average damage % 21DAT,[6],0%
same,Average damage % 3DAT,[7],0%
same,Average damage % 7DAT,[7],0%
same,Average damage % 14DAT,[7],0%
same,Average damage % 21DAT,[7],0%
same,Average damage % 3DAT,[8],3%
same,Average damage % 7DAT,[8],0%
same,Average damage % 14DAT,[8],0%
same,Average damage % 21DAT,[8],0%
same,Average damage % 3DAT,[9],2%
same,Average damage % 7DAT,[9],0%
same,Average damage % 14DAT,[9],0%
same,Average damage % 21DAT,[9],0%
same,Average damage % 3DAT,[10],0%
same,Average damage % 7DAT,[10],0%
same,Average damage % 14DAT,[10],0%
same,Average damage % 21DAT,[10],0%
same,Average damage % 3DAT,[11],14%
same,Average damage % 7DAT,[11],5%
same,Average damage % 14DAT,[11],0%
same,Average damage % 21DAT,[11],0%
same,Average damage % 7DAT,[12],4%
same,Average damage % 14DAT,[12],0%
same,Average damage % 21DAT,[12],0%
same,Average damage % 3DAT,[13],20%
same,Average damage % 7DAT,[13],7%
same,Average damage % 14DAT,[13],0%
same,Average damage % 21DAT,[13],0%
same,Average damage % 3DAT,[14],61%
same,Average damage % 7DAT,[14],82%
same,Average damage % 14DAT,[14],100%
same,Average damage % 21DAT,[14],100%
same,Average damage % 3DAT,[15],53%
same,Average damage % 7DAT,[15],78%
same,Average damage % 14DAT,[15],100%
same,Average damage % 21DAT,[15],100%
